For data set [1], the system named is E. coli BL 21 (Tuner pLysS). Description: Tetracycline-induced YqhD expression, gel electrophoresis. In kind it is cell-based. The following applies: 10 μM.
Another data set relates to E. Coli (JMR 223-MC4100). Description: MIC in LB culture. In kind it is cell-based. The settings on record: overnight 37° C. As to the method:
An E. Coli (JMR 223-MC4100) plate was grown up overnight in LB agar at 37° C. A good colony was selected and added to 5 mL LB growth media. This was incubated at 37° C. with shaking at 250 rpm until the solution reaches an OD of at least 0.5 or higher at 600 nm. A final solution was diluted 500× to an OD of 0.001, correlating to a CFU of 1×10^6. 5 ml solutions of the diluted bacterial broth were measured out. Liptins were added to make solutions of 20 μM, 15 μM, 10 μM, 5 μM, 4 μM, 3 μM, 2 μM, and 1 μM (This means adding 0.2 mL, 0.15 mL, 0.1 mL, 0.05 mL, 0.04 mL, 0.03 mL, 0.02 mL, 0.01 mL of the 500 μM solution). Cultures were allowed to incubate overnight at 37° C. with shaking at 250 rpm. The following day, cultures were analyzed to evaluate the presence or absence of bacterial growth by spectrophotometry at 600 nm (0.66 mg of liptin in 0.95 mL of water; 0.15 OD Diluted 150× to OD of 0.001). […] Growth was not observed in the 2 μM and up solutions. See FIGS. 11A-11B for a visual image of the E. coli cultures.

Data set [2] deals with HepG2 human hepatocyte cells. As to the kind of experiment: Hepatocyte toxicity, MTT assay. In kind it is cell-based. The settings on record: 9-12 hours; down to 0.5 μM. As to the method:
Toxicity of compounds to eukaryotic cells was assessed by MTT assay of cultured HepG2 human hepatocyte cells grown in media supplemented with 10% fetal bovine serum and antibiotics.
Human liver HepG2 cells were cultured in 100 mm^2 Falcon tissue culture plates in DMEM with high glucose (4500 mg/L) supplemented with 10% fetal bovine serum, 50 μg/ml streptomycin and 50 IU/ml penicillin at 37° C. and 5% CO2. Cells were cultured to about 70-80% confluence, and then seeded into 96 well plates depending and grown to 70-80% confluence for 2-3 days unless otherwise stated.
Cell viability was determined by MTT [3-(4,5-dimethylthiazol-2-yl)-2,5-diphenyltetrazolium bromide)] assay (Denizot & Lang 1986). Briefly, cells were seeded on 96-well plates and allowed to grow until 70-80% confluence. Prior to the experiment, medium was replaced with KRB containing a desired concentration of the toxin or other reagents and incubated for 9 h to 12 h depending on the experiment at 37° C. […] The resulting formazan was solubilized by the addition of 210 μL detergent solution (50% DMF, 20% SDS) followed by incubation for 4 h at 37° C. and was quantified based on the difference in the absorbance at 570 nm and 650 nm (Mosmann 1983). Results are expressed as viability of toxin treated cells with respect to control cells which were treated under the same conditions except in the absence of the toxin. […]
(Tetrazolium assays rely on reduction of a dye to a coloured formazan, in cell work by metabolically active cells.)

A further data set can be described thus: Water solubility. In kind it is physicochemical. The following applies: TFA counterions. An excerpt: Route 1 involves reductive amination of the uncharged glycine picket with an aldehyde. Route 2 involves amidation of the meso-phenylamines via addition of chloroacetyl chloride followed by the SN2 addition of amines to the resultant alkyl chloride (examples of alkyl, polyether, or benzyl amines are shown in Scheme 1). Route 2 is capable of furnishing a more diverse set of pickets, and modeling has shown that the use of the aryl amines shown in Scheme 1 would position their phenolic OH groups to allow for hydrogen bonding with the lipid's fatty acid ester groups. At the present time, porphyrins 3f-h have been furnished using Route 2. Route 3 involves the transformation of the meso-phenylamines into phenylisocyanates, followed by the addition of a substituted hydrazine (prepared from an aldehyde and hydrazine to form the hydrazone followed by reductive amination or with commercially available hydrazines) to furnish a semicarbazide group whose nitrogen can be charged (FIG. 6). The urea portion of the semicarbazide would provide additional strong hydrogen-bonding sites for the glycerol hydroxyl groups.

The nature of data set [3]: FCS binding of liptin to PG at the membrane interface (liposomes, surfactant vesicles). How it is done:
The porphyrin 3e was used to examine the liptin's affinity and selectivity for PG when PG was present as part of a membrane bilayer. In this example, fluorescence correlation spectroscopy (FCS) was used to measure the fraction of liptin bound to surfactant vesicles or liposomes containing a known amount of PG. This approach is fast, reliable and accurate, and is possible when the liptin is a stable fluorophore, as in the case of 3e.
FCS results are evaluated by treating the time dependent fluorescence intensity acquired from a dilute solution of the liptin using a focused laser beam as the excitation source. Temporal fluctuations in the fluorescence intensity are a result of the diffusion of the liptin through the focused laser beam. When the liptin binds to a vesicle, its apparent diffusion coefficient decreases by two orders of magnitude.
FIG. panels 9A and 9C contain examples of autocorrelation decays for liptin 3e in with liposomes (FIG. 9A) and surfactant vesicles (FIG. 9C) containing varying amounts of PG. Specifically, FIG. 9 illustrates an autocorrelation analysis of liptin 3e binding to PG-doped membranes of liposomes and positively-charged surfactant vesicles. A) Autocorrelation decays for liptin with varying percentages of PG in PE liposome. B) Binding constant values as a function of PS and PG in PE liposome. C) Autocorrelation decays for liptin with varying percentages of PG in positively-charged surfactant vesicles. D) Binding constant of liptin with varying percentages of PG in positively-charged surfactant vesicles. […] In FIGS. 9A and 9C, the markers are the experimental data and the solid lines are the fits that determine the fraction of liptin bound, f. This quantity is then used to calculate the binding constant:
[formula] where [R] is the total concentration of […], and it has been assumed that half of the PG is located on the membrane inner leaflet and thus not available for binding.

The test system of data set [4] is E. coli, Staphylococcus aureus, Enterococcus faecalis. Description: MIC of liptin 3e, overall statement. In kind it is cell-based. The settings on record: LB culture.
A further data set concerns E. coli (MC4100). Description: Overnight growth study in LB broth. In kind it is cell-based. The source says: This spectrum is identical to the spectrum of just liptin in water illustrating that the liptin is not degraded or metabolized when exposed to bacteria over long periods of time.

The structures appear in SMILES notation.

Turning to `NCC(=O)Nc1ccccc1-c1c2nc(c(-c3ccccc3NC(=O)CN)c3ccc([nH]3)c(-c3ccccc3NC(=O)CN)c3nc(c(-c4ccccc4NC(=O)CN)c4ccc1[nH]4)C=C3)C=C2.O=C(O)C(F)(F)F.O=C(O)C(F)(F)F.O=C(O)C(F)(F)F.O=C(O)C(F)(F)F` [Liptin 3e], the protein synthesis entry in data set [1] was “most protein synthesis was effectively disrupted”. Besides, the results for the MIC (against E. Coli (JMR 223-MC4100); in data set [4]) were 1 to 2 µM and “less than 2 μM”, respectively. In addition, the “toxicity (cell viability, MTT)” value in data set [2] is reported as “lack of toxicity”. Besides, the water solubility result in the data set “Water solubility” is “quite water soluble”. In addition, the “PG binding affinities at the membrane interface” value in data set [3] (FCS) is listed as ~10^4 M^−1. The Ka in data set [3] (Lipid vesicles containing 10-30% PG) is listed as 10^4. In data set [3] (lipid vesicles of binary mixtures of PG or PS with PE), the “selectivity of binding PG vs phosphatidylserine (PS)” value is on record as “selective for PG over the PS”. Besides, the “binding to surfactant vesicle without PG” value in data set [3] (no PG, only anionic component sodium dodecylbenzenesulfonate (SDBS)) is given as “Negligible binding”. In data set [3] (surfactant vesicle with 1% of PG and 35% SDBS), this molecule returned a binding constant of 47000 M⁻¹. Also, the “stability: UV/Visible spectrum of membrane-bound liptin” value in the data set on E. coli (MC4100) (12 hours in bacterial culture) is listed as “no change”. Moreover, the “time until bacterial replication completely stops” value with E. coli (MC4100) (one-time addition of 10 μM, growth phase, 37° C., OD=0.2, stopped for 12 hours) fell in the range of 1 to 2 h.
